Measurements as given in US20090221829A1 (priority 2005, published 2009).

test system: Candida albicans(KCTC 1940), Aspergillus niger (ATCC 9642) and Saccharomyces cerevisiae; assay: Relative antifungal activity by agar dilution method (vs Miconazole); type: cell-based; conditions: agar dilution method; fungicidal concentration relative to control drug Miconazole (=4);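 further: scores 5 to 7 mean a lower fungicidal concentration than Miconazole so higher is more potent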
Text: Novel compounds represented by the above chemical formula (I), and the relative activities in accordance with the agar dilution method in Sabouraud dextrose agar media, Czapek agar media and Yeast Extract-Peptone-Dextrose agar media for Candida albicans(KCTC 1940), Aspergillus niger (ATCC 9642) and Saccharomyces cerevisiae are described respectively in following Table 1.

Question: `COc1cc2c(cc1OC)C(c1ccc(C(C)(C)C)cc1)=[N+](Cc1c(F)cccc1Cl)CC2.[Cl-]` [Compound No. 70, 1-(4-t-butylphenyl)-2-(2-chloro-6-fluorophenyl)methyl-3,4-dihydro-6,7-dimethoxyisoquinolinium chloride] was tested. Which “Relative Activity” value did it give?
Answer: 6

Question: `CCCCCCCCCCCC1=[N+](c2ccc(C(F)(F)F)cc2)CCc2cc(CNC(=O)OCC)ccc21.[Br-]` [Compound No. 117, Ethyl 3,4-dihydro-1-undecylisoquinolinium-2-(4-trifluoromethylphenyl)-6-ylmethylcabamate bromide] was tested. Which “Relative Activity” value did it give?
Answer: 4

Question: `COc1cc2c(cc1OC)C(C)=[N+](Cc1ccccc1F)CC2.[Cl-]` [Compound No. 2, 1-methyl-2-(2-fluorophenyl)methyl-3,4-dihydro-6,7-dimethoxy-isoquinolinium chloride] was tested. Which “Relative Activity” value did it give?
Answer: 6

Question: Which “Relative Activity” value does the source give for `COc1cc2c(cc1OC)C(C(C)C)=[N+](Cc1ccc(F)c(F)c1)CC2.[Cl-]` [Compound No. 40, 1-i-propyl-2-(3,4-difluorophenyl)methyl-3,4-dihydro-6,7-dimethoxyisoquinolinium chloride] here?
Answer: 6

Question: How did the “Relative Activity” value turn out when `CCCCCC1=[N+](Cc2ccc(C(F)(F)F)cc2)CCc2cc(OC)c(OC)cc21.[Cl-]` [Compound No. 27, 1-n-pentyl-2-(4-trifluoromethylphenyl)methyl-3,4-dihydro-6,7-dimethoxyisoquinolinium chloride] was run?
Answer: 4

Question: For `COc1cc2c(cc1OC)C(CCc1ccc(C(C)(C)C)cc1)=[N+](Cc1c(F)c(F)c(F)c(F)c1F)CC2.[Cl-]` [Compound No. 130, 1-(2-(4-t-butylphenyl))ethyl-2-(2,3,4,5,6-pentafluorophenyl)methyl-3,4-dihydro-6,7-dimethoxy isoquinolinium chloride], which “Relative Activity” value is on record?
Answer: 4

Question: `COc1cc2c(cc1OC)C(c1ccccc1F)=[N+](Cc1ccc(F)c(F)c1)CC2.[Cl-]` [Compound No. 47, 1-(2-fluorophenyl)-2-(3,4-difluorophenyl)methyl-3,4-dihydro-6,7-dimethoxyisoquinolinium chloride] was tested. Which “Relative Activity” value did it give?
Answer: 6

Question: With `COc1ccc2c(c1)CC[N+](Cc1ccccc1F)=C2c1ccc(C(C)(C)C)cc1.[Cl-]` [Compound No. 91, 1-(4-t-butylphenyl)-2-(2-fluorophenyl)methyl-3,4-dihydro-6-methoxyisoquinolinium chloride] as the compound, how does the “Relative Activity” value read?
Answer: 6

Question: With `CCCCCCCC1=[N+](Cc2ccc(F)c(F)c2)CCc2cc3c(cc21)OCO3.[Cl-]` [Compound No. 112, 1-n-heptyl-2-(3,4-difluorophenyl)methyl-3,4-dihydro-6,7-methylenedioxyisoquinolinium chloride] as the compound, how does the “Relative Activity” value read?
Answer: 4

Question: With `COc1cc2c(cc1OC)C(CCCCl)=[N+](Cc1ccccc1F)CC2.[Cl-]` [Compound No. 7, 1-(3-chloropropyl)-2-(2-fluorophenyl)methyl-3,4-dihydro-6,7-dimethoxyisoquinolinium chloride] as the compound, how does the “Relative Activity” value read?
Answer: 5

Question: For `COc1cc2c(cc1OC)C(C)=[N+](Cc1cc(Br)c(OC)c(OC)c1)CC2.[Cl-]` [Compound No. 78, 1-methyl-2-(3-bromo-4,5-dimethoxy)methyl-3,4-dihydro-6,7-dimethoxyisoquinolinium chloride], which “Relative Activity” value is on record?
Answer: 6

Question: `CCCCCCCCCCCC1=[N+](Cc2c(F)cccc2Cl)CCc2cc(OC)c(OC)cc21.[Cl-]` [Compound No. 68, 1-n-undecyl-2-(2-chloro-6-fluorophenyl)methyl-3,4-dihydro-6,7-dimethoxyisoquinolinium chloride] was tested. Which “Relative Activity” value did it give?
Answer: 2

Question: Which “Relative Activity” value does the source give for `CCCCCCC1=[N+](Cc2ccc(C(F)(F)F)cc2)CCc2cc(OC)c(OC)cc21.[Cl-]` [Compound No. 45, 1-n-hexyl-2-(4-trifluoromethylphenyl)methyl-3,4-dihydro-6,7-dimethoxyisoquinolinium chloride] here?
Answer: 4

Question: `CCCCCCCCCCCC1=[N+](Cc2ccc(F)c(F)c2)CCc2cc(OC)c(OC)cc21.[Cl-]` [Compound No. 44, 1-n-undecyl-2-(3,4-difluorophenyl)methyl-3,4-dihydro-6,7-dimethoxyisoquinolinium chloride] was tested. Which “Relative Activity” value did it give?
Answer: 1

Question: For `CCCCCCC1=[N+](Cc2ccc(F)c(F)c2)CCc2cc(OC)c(OC)cc21.[Cl-]` [Compound No. 42, 1-n-hexyl-2-(3,4-difluorophenyl)methyl-3,4-dihydro-6,7-dimethoxyisoquinolinium chloride], which “Relative Activity” value is on record?
Answer: 4

Question: For `CCCC1=[N+](Cc2ccccc2F)CCc2cc(OC)c(OC)cc21.[Cl-]` [Compound No. 5, 1-propyl-2-(2-fluorophenyl)methyl-3,4-dihydro-6,7-dimethoxyisoquinolinium chloride], which “Relative Activity” value is on record?
Answer: 5

Question: Which “Relative Activity” value does the source give for `CCCCCCC1=[N+](Cc2ccccc2Cl)CCc2cc(OC)c(OC)cc21.[Cl-]` [Compound No. 51, 1-n-hexyl-2-(2-chlorophenyl)methyl-3,4-dihydro-6,7-dimethoxyisoquinolinium chloride] here?
Answer: 4

Question: Which “Relative Activity” value does the source give for `CC(C)(C)c1ccc(C2=[N+](Cc3ccc(F)c(F)c3)CCc3cc4c(cc32)OCO4)cc1.[Cl-]` [Compound No. 114, 1-(4′-t-butylphenyl)-2-(3,4-difluorophenyl)methyl-3,4-dihydro-6,7-methylenedioxyisoquinolinium chloride] here?
Answer: 6

Question: How did the “Relative Activity” value turn out when `COc1cc2c(cc1OC)C(C)=[N+](Cc1ccc(C(F)(F)F)cc1)CC2.[Cl-]` [Compound No. 26, 1-methyl-2-(4-trifluoromethylphenyl)methyl-3,4-dihydro-6,7-dimethoxyisoquinolinium chloride] was run?
Answer: 6

Question: How did the “Relative Activity” value turn out when `COc1cc2c(cc1OC)C(C)=[N+](Cc1ccccc1Cl)CC2.[Cl-]` [Compound No. 49, 1-methyl-2-(2-chlorophenyl)methyl-3,4-dihydro-6,7-dimethoxyisoquinolinium chloride] was run?
Answer: 6

Question: `CCCCCCCCCCCC1=[N+](Cc2ccccc2[N+](=O)[O-])CCc2cc(OC)c(OC)cc21.[Cl-]` [Compound No. 74, 1-n-undecyl-2-(2-nitrophenyl)methyl-3,4-dihydro-6,7-dimethoxyisoquinolinium chloride] was tested. Which “Relative Activity” value did it give?
Answer: 2

Question: For `CCCCCCCCCCCCCCCC1=[N+](Cc2ccccc2F)CCc2cc(OC)c(OC)cc21.[Cl-]` [Compound No. 13, 1-n-pentadecyl-2-(2-fluorophenyl)methyl-3,4-dihydro-6,7-dimethoxyisoquinolinium chloride], which “Relative Activity” value is on record?
Answer: 2

Question: `CCCCCCCC1=[N+](Cc2c(F)cccc2Cl)CCc2cc(OC)c(OC)cc21.[Cl-]` [Compound No. 67, 1-n-heptyl-2-(2-chloro-6-fluorophenyl)methyl-3,4-dihydro-6,7-dimethoxyisoquinolinium chloride] was tested. Which “Relative Activity” value did it give?
Answer: 4

Question: With `CCCCCCCCCCCCCCCC1=[N+](Cc2ccc(F)c(F)c2)CCc2cc(OC)c(OC)cc21.[Cl-]` [Compound No. 46, 1-n-pentadecyl-2-(3,4-difluorophenyl)methyl-3,4-dihydro-6,7-dimethoxyisoquinolinium chloride] as the compound, how does the “Relative Activity” value read?
Answer: 1

Question: For `CCCCCCCC1=[N+](Cc2ccccc2F)CCc2cc(OC)ccc21.[Cl-]` [Compound No. 87, 1-n-heptyl-2-(2-fluorophenyl)methyl-3,4-dihydro-6-methoxyisoquinolinium chloride], which “Relative Activity” value is on record?
Answer: 5

Question: For `CCCCCCCC1=[N+](Cc2cc(Br)c(OC)c(OC)c2)CCc2cc(OC)c(OC)cc21.[Cl-]` [Compound No. 79, 1-n-heptyl-2-(3-bromo-4,5-dimethoxyphenyl)methyl-3,4-dihydro-6,7-dimethoxyisoquinolinium chloride], which “Relative Activity” value is on record?
Answer: 5

Question: For `CCCCCCCCCCCCCCCC1=[N+](Cc2ccc(F)cc2)CCc2cc(OC)c(OC)cc21.[Cl-]` [Compound No. 38, 1-n-pentadecyl-2-(4-fluorophenyl)methyl-3,4-dihydro-6,7-dimethoxyisoquinolinium chloride], which “Relative Activity” value is on record?
Answer: 1

Question: Which “Relative Activity” value does the source give for `CCCCCC1=[N+](Cc2ccccc2F)CCc2cc(OC)ccc21.[Cl-]` [Compound No. 85, 1-n-pentyl-2-(2-fluorophenyl)methyl-3,4-dihydro-6-methoxyisoquinolinium chloride] here?
Answer: 5

Question: Which “Relative Activity” value does the source give for `CCCC1=[N+](Cc2ccccc2F)CCc2cc(OC)ccc21.[Cl-]` [Compound No. 82, 1-n-propyl-2-(2-fluorophenyl)methyl-3,4-dihydro-6-methoxyisoquinolinium chloride] here?
Answer: 6

Question: `CCCCCCCC1=[N+](Cc2ccc(C(F)(F)F)cc2)CCc2cc(OC)c(OC)cc21.[Cl-]` [Compound No. 28, 1-n-heptyl-2-(4-trifluoromethylphenyl)methyl-3,4-dihydro-6,7-dimethoxyisoquinolinium chloride] was tested. Which “Relative Activity” value did it give?
Answer: 4

Question: How did the “Relative Activity” value turn out when `COc1cc2c(cc1OC)C(c1ccc(F)cc1F)=[N+](Cc1ccccc1F)CC2.[Cl-]` [Compound No. 16, 1-(2,4-difluorophenyl)-2-(2-fluorophenyl)methyl-3,4-dihydro-6,7-dimethoxyisoquinolinium chloride] was run?
Answer: 6

Question: `COc1ccc(C[N+]2=C(CCc3ccc(C(C)(C)C)cc3)c3cc(OC)c(OC)cc3CC2)cc1OC` [Compound No. 125, 1-(2-(4-t-butylphenyl))ethyl-2-(3,4-dimethoxyphenyl)methyl-3,4-dihydro-6,7-dimethoxyisoquinolinium chloride] was tested. Which “Relative Activity” value did it give?
Answer: 2

Question: With `CCC1=[N+](Cc2ccccc2F)CCc2cc(OC)c(OC)cc21.[Cl-]` [Compound No. 4, 1-ethyl-2-(2-fluorophenyl)methyl-3,4-dihydro-6,7-dimethoxy-isoquinolinium chloride] as the compound, how does the “Relative Activity” value read?
Answer: 6

same assay, conditions: antifungal activity relative to Miconazole, agar dilution

Question: Which “Relative Activity” value does the source give for `COc1cc2cc[n+](Cc3ccc(C(C)(C)C)cc3)cc2cc1OC.[Cl-]` [Compound No. 142, 2-(4-t-butylphenyl)methyl-6,7-dimethoxy-isoquinolinium chloride] here?
Answer: 6

Question: `CCCCCCCCCCCc1c2cc(OC)c(OC)cc2cc[n+]1Cc1ccc(C(C)(C)C)cc1.[Cl-]` [Compound No. 146, 1-undecyl-2-(4-t-butylphenyl)methyl-6,7-dimethoxyisoquinolinium chloride] was tested. Which “Relative Activity” value did it give?
Answer: 2
